In US6599499B1, “Uses of diterpenoid triepoxides as an anti-proliferative agent” (priority 1999, dated 2003):

How the values were obtained:
H23 human tumor cells = system: H23 human tumor cells
Protocol: (§1) Cell death reagents and assays. Cell viability was measured by an MTT assay as recently described (Lee et al. (1999) J. Biol. Chem. 274:13451-13455. z-VAD-fluoromethylketone (z-VAD.fmk) was obtained from Alexis Biochemicals, San Diego, Calif. The effect of z-VAD.fmk on cell viability was analyzed by annexin and propidium iodide staining followed by FACS analysis according to the manufacturer's protocol (Clontech Laboratories, Palo Alto, Calif.). The analysis of apoptosis in histologic sections was done by terminal deoxynucleotidyl transferase (TdT)-mediated d-UTP nick end labeling (TUNEL) of slides from paraffin sections of day 3 tumors harvested from the mice 24 h after the second of two daily treatments with PG490-88 or saline. TUNEL staining was done according to the manufacturer's protocol (Boehringer Mannheim, Indianapolis, Ind.) and then the histology slides were counterstained with methyl green. DNA was isolated from cells for analysis of internucleosomal DNA laddering followed by agarose gel electrophoresis and ethidium bromide staining.
Nude mouse xenograft model. Female NCr nude mice were purchased from Taconic, Germantown, N.Y., and were generally 20-24 grams when used. Mice were kept in autoclaved filter-top microisolator cages with autoclaved water and sterile food ad lib. The cages were maintained in an isolator unit providing filtered air (Lab Products, Inc., Maywood, N.J.). Tumor cells were grown and harvested as described above. NCr nude mice were injected intradermally with 5×10^6 tumor cells. In some experiments, treatment was initiated on the day of tumor cell implantation. […] Mice were treated IP daily for 5 days per week.
H23 tumor cells were implanted intradermally in nude mice. When the tumors reached approximately 100 mm^3, daily IP treatment with PG490-88 was initiated. […] The data in FIG. 3 represents the measurement of H23 tumor volume on day 14 after the initiation of treatment. Nude mice bearing xenografts of H23 human tumor cells were treated daily as shown. The data represent the means and the standard errors of the means of the tumor volumes as percent of the day 0 tumor volumes for each animal measured day 3, 6, 10 and 14 days after the initiation of treatment. There were 5 mice per group.

[1] = system: HT-29 human colon cancer cell line tumors; experiment: Nude mouse xenograft, established HT-29 colon cancer tumors; assay type: in vivo, nude mice
Protocol: HT-29 tumor cells grown in tissue culture were harvested and implanted intradermally on the backs of nude mice. Tumor size was monitored by measuring the dimensions of each tumor and calculating tumor volume with a formula. […] PG490-88 treatment at 0.25 mg/kg was administered daily i.p. 5 days per week for 2 weeks. Navelbine at 10 mg/kg was given i.v. on days 0 and 7. Mice in the combination treatment group received PG490-88 i.p. and Navelbine i.v. at the appropriate times. The treatments were given to mice at 100 μl per 10 g of mouse body weight. Tumor dimensions were measured periodically for calculation of tumor volumes. […] The data are presented as mean percent change in tumor volume from day 0 for each treatment group. Toxicity of the treatment was monitored by weighing the mice daily 5 days per week. In FIG. 8, a comparison is provided for tumor volumes on Days 0 and 14. Tumor dimensions were measured periodically for calculation of tumor volumes, and the final determinations were made on day 14.

p53 = p53 translocation into the nucleus, sub-cellular fractionation of MCF-7 cells; assay type: cell-based, human; conditions: MCF-7, triptolide 20 ng/ml
Protocol: Sub-cellular fractionation of MCF-7 cells. After treatment with triptolide (5 or 20 ng/ml) and/or doxorubicin (100 nM) cytosolic and nuclear extracts were prepared as previously described (Lee et al. (1988) Gene Anal Tech 5:22-31) and 50 μg of each extract was used in SDS/PAGE immunoblot analysis of p53.

[2] = system: MCF-7 (breast cancer) cells; experiment: cells; conditions: for Percent survival: MTT after 48 h
Protocol: Cell culture and luciferase assay. A549 (non-small cell lung cancer), HT-1080 (fibrosarcoma), and MCF-7 (breast cancer) cells were cultured in the appropriate media with 10% FCS supplemented with L-glutamine, penicillin, and streptomycin. p53 wild-type (+/+) and null (−/−) Mouse Embryonic Fibroblasts (MEFs) transfected with the E1A/Ras were grown in DMEM containing 15% FCS supplemented with L-glutamine, penicillin, and streptomycin. Transfections were done on MCF-7 cells using the lipofectamine Plus reagent. At 24 hours after transfection, MCF-7 cells were left untreated or treated with triptolide (20 ng/ml) or doxorubicin (100 nM) for 4, 8, and 16 hours and cells were collected for luciferase assay. Luciferase activity was measured in samples with equal protein concentration with a Luminometer (Analytical Luminescence Laboratory, San Diego, Calif.).
Cell viability assay. Cell viability was measured by an 3-(4,5-dimethylthiazol-2-yl)-2,5-diphenyltetrazolium bromide (MTT) assay as described above. Untreated or cells treated with triptolide and/or doxorubicin were harvested at the indicated times followed by the addition of MTT to the cells in a 96-well plate. Cells were solubilized with […] acidified with 0.1N HCl. The 96-plate was read at a wavelength of 590 nm on an iEMS Labsystems plate reader.

Dx5 cells = experiment: Internucleosomal DNA laddering in Dx5 cells; assay type: cell-based, human
Protocol: as §1
In FIG. 1A, ZR-75 (breast cancer), H23 (non-small cell lung cancer) and Dx5 (MDR uterine sarcoma) cell lines were treated with PG490 at dosages shown and harvested 48 h later for analysis of cell viability by an MTT assay. […]

p53 mRNA = p53 mRNA by Northern blot in HT1080 cells; assay type: cell-based, human
Protocol: Northern Blot Analysis. RNA was prepared from HT1080 cells using RNeasy Mini Kit from Qiagen Inc. (Valencia, Calif.). cDNAs for Northern blot analysis for p21 and p53 were prepared using RT-PCR with […] of total RNA. The following primer pairs were used: p53, (SEQ ID NO:11) 5′-[…]-3′ and (SEQ ID NO:12) 5′-[…]-3′; p21, (SEQ ID NO:13) 5′-[…]-3′ and (SEQ ID NO:14) 5′-[…]-3′; and glyceraldehyde-3-phosphate dehydrogenase, (SEQ ID NO:15) 5′-[…]-3′ and 5′-(SEQ ID NO:16) […]-3′.

Dx5 and H23 cells = experiment: Growth arrest / cell cycle progression in Dx5 and H23 cells; assay type: cell-based, human

CC(C)[C@]12O[C@H]1[C@@H]1O[C@]13[C@]1(O[C@H]1C[C@H]1C4=C(CC[C@@]13C)C(=O)OC4)[C@@H]2OC(=O)CCC(=O)[O-].[Na+] [PG490-88, 14-succinyl triptolide sodium salt]
decrease of mean tumor size from the initial value at day 0 (H23 human tumor cells; PG490-88 0.75 mg/kg/day, day 14): 61%
decrease of tumor size relative to the day 14 vehicle control (H23 human tumor cells; PG490-88 alone 0.75 mg/kg/day, combination PG490-88 0.25 mg/kg/day plus taxol 10 mg/kg/day): 97%
inhibition of tumor growth (H23 human tumor cells; daily IP PG490-88): inhibited tumor growth in a dose-dependent manner
TUNEL staining of tumor sections (H23 human tumor cells; day 3 tumors, compared to saline-treated animals): many TUNEL-positive cells
tumor volume as % of the vehicle control (H23 human tumor cells; day 14, PG490-88 0.25 mg/kg/day, taxol 10 mg/kg/day, IP): 21%
increase in tumor volume from day 0 by day 14 ([1]; PG490-88 0.25 mg/kg i.p. 5 days per week for 2 weeks, Navelbine 10 mg/kg i.v. days 0 and 7): 238%
Day 0 Tumor Volume (mm^3) Mean ([1]; baseline at grouping, before treatment): 109 mm^3

CC(C)[C@]12O[C@H]1[C@@H]1O[C@]13[C@]1(O[C@H]1C[C@H]1C4=C(CC[C@@]13C)C(=O)OC4)[C@@H]2O [PG490, triptolide]
localisation of the majority of p53 (p53): translocated into nuclei
cytotoxicity at 0.02 µg/mL ([2]; Homo sapiens, MCF7, read-out: decrease in cell viability, MCF-7, triptolide 20 ng/ml): 70%
Percent survival ([2]; MCF-7, Triptolide 5 ng/ml): 63.9 ± 8.1%
Percent survival ([2]; MCF-7, Triptolide 20 ng/ml): 30.5 ± 7.6%
DNA laddering, time it began (Dx5 cells): 6 h
DNA laddering, time of maximum (Dx5 cells): ≤ 16 h
level of p53 mRNA (p53 mRNA): not affected
growth arrest / cell cycle progression (Dx5 and H23 cells): did not cause growth arrest or significantly affect cell cycle progression
DNA strand breaks (DNA strand breaks): does not induce DNA strand breaks
